Article PMC6522510 (Nature Communications, 2019)
Read-outs that look alike come from different tables or passages of the source.

Experiments:
Parameters in all cases: species or system AML cell lines (8); Primary HTS, single concentration about 10 uM, Cell Titer Glo viability; log10 luminescence, per cent inhibition relative to cycloheximide control
Settings in all cases: 72 h, inhibitor
[1] = tested on: CMK
[2] = tested on: CHRF288-11
[3] = tested on: MV4-11
[4] = tested on: M07e
[5] = tested on: CMS
[6] = tested on: ML-2
[7] = tested on: U937
[8] = tested on: MOLM-13
[9] = relative to cycloheximide control, log10 luminescence

Compound	CMK %inh [1, 9] [%]	CHRF288-11 %inh [2, 9] [%]	MV4-11 %inh [3, 9] [%]	M07e %inh [4, 9] [%]	CMS %inh [5, 9] [%]	ML-2 %inh [6, 9] [%]	U937 %inh [7, 9] [%]	MOLM-13 %inh [8, 9] [%]	CMK %inh ([1]; 10 µM) [%]	CHRF288-11 %inh ([2]; 10 µM) [%]	MV4-11 %inh ([3]; 10 µM) [%]	M07e %inh ([4]; 10 µM) [%]	CMS %inh ([5]; 10 µM) [%]	ML-2 %inh ([6]; 10 µM) [%]	U937 %inh ([7]; 10 µM) [%]	MOLM-13 %inh ([8]; 10 µM) [%]
NS(=O)(=O)c1cccc(-c2ccc3c(NC(=O)C4CC4)n[nH]c3c2)c1 [SJ000573205-1, VB100064-175A1]	1.524	4.666	1.069	-1.196	-2.181	8.415	7.36	11.82								
COC(=O)c1cncc(/C=C/c2c(C)cc(O)cc2C)c1 [SJ000573206-1, U12614/140/1]	80.78	31.61	6.215	18.22	1.868	4.986	23.01	1.326								
CCCN(CCS(C)(=O)=O)Cc1ccc(-c2ccc3ncnc(Nc4ccc(OCc5cccc(F)c5)c(Cl)c4)c3c2)o1 [SJ000573207-1, U16419/108/1]	1.892	4.347	1.09	-0.08315	-1.914	1.001	4.462	2.051								
CS(=O)(=O)CCNCc1nc(-c2ccc3ncnc(Nc4ccc(F)c(Cl)c4)c3c2)cs1 [SJ000573208-1, R2677/150/1]	3.345	0.6669	1.268	1.192	3.363	0.9399	-0.3412	1.729								
O=C(Nc1n[nH]c2nnc(-c3cccnc3)cc12)C1CC1 [SJ000573209-1, VB49227-069A2]									119.5	36.24	53.21	20.82	99.51	10.24	14.39	58.37
COc1ccc2ncnc(Nc3ccc(OCc4ccccc4)cc3)c2c1 [SJ000573210-1, 0142W 95C*D]	1.162	-3.911	1.39	-3.821	0.3657	-0.6695	-0.1655	13.25								
CCn1c(-c2nonc2N)nc2cncc(C(=O)N3CC[C@H](N)C3)c21 [SJ000573211-1, MH203936-065A1]	50.04	24.28	35.54	8.501	6.352	13.35	24.07	12.04								
CC1=C(C(=O)Nc2ccc3[nH]ncc3c2)C(c2ccc(F)cc2)NC(=O)N1 (stereo not drawn) [SJ000573212-1, SD203460-064A1]	22.73	14.28	13.33	2.046	3.347	7.379	0.2192	-1.98								
O=C1Nc2ccc(-c3cccnc3)cc2C1=Cc1cc(Br)c(O)c(Br)c1 [SJ000573213-1, R10489/16/2]	0.4308	4.693	-0.07867	2.589	-1.986	4.287	-1.775	4.678								
CCNC(=O)O[C@H]1CN[C@H](C#Cc2cc3ncnc(Nc4ccc(OCc5cccc(F)c5)c(Cl)c4)c3s2)C1 [SJ000573214-1, U20348/125/4]	-1.307	5.639	0.06144	3.561	3.079	3.073	-0.8245	0.5641								
O=C(O[C@H]1CN[C@H](C#Cc2cc3ncnc(Nc4ccc5c(cnn5Cc5ccccc5)c4)c3s2)C1)N1CCOCC1 [SJ000573215-1, U19635/172/2]	78.93	51	1.975	-0.8707	5.16	2.941	3.001	2.242								
COc1cccc(-n2ncc3c(N/N=C/c4cccc(F)c4)ncnc32)c1 [SJ000573217-1, U18028/186/1]	-7.034	-0.7991	-3.164	-2.637	0.08051	0.8639	-3.323	-3.305								
COc1ccc2[nH]c3c4[nH]c5ccc(OC)cc5c4c4c(c3c2c1)C(=O)NC4=O [SJ000573218-1, 3744W 92C*D]	26.51	13.67	76.35	25.27	16.49	9.324	14.28	81.75								
COc1cccc(-n2ncc3c(N/N=C/c4ccc(F)cc4)ncnc32)c1 [SJ000573219-1, U18028/188/1]	-2.994	-1.076	-2.52	4.179	1.318	1.489	-0.8072	0.1437								
COc1ccc(-c2cc3c(N)ncnc3o2)cc1 [SJ000573220-1, R6872/65/2]	5.591	23.46	-2.253	10.8	5.247	2.103	-1.174	4.813								
CN1CCC(n2cnc(-c3ccc(F)cc3)c2-c2ccnc(N)n2)CC1 [SJ000573221-1, JB19236-039E1]	38.27	35.57	16.49	20.04	5.129	19.36	13.28	26.24								
CCn1c(-c2nonc2N)nc2cnc(Oc3cccc(NC(=O)c4ccc(OCCN5CCOCC5)cc4)c3)cc21 [SJ000573222-1, HC204505-099A1]	59.96	16.4	34.29	-2.093	9.487	11.73	38.21	15.66								
c1ccc(-c2n[nH]cc2-c2ccnc(-c3ccc(OCCn4ccnc4)cc3)c2)nc1 [SJ000573223-1, FVLN/241/112/1]	2.62	4.882	2.943	-2.852	-2.708	-0.7623	-2.834	3.444								
